# ChEMBL document CHEMBL1201862, “PubChem BioAssay data set” (2004)
# Calls of active or inactive are those of the source.
# Key:
# [1] = molecular target: FAD-linked sulfhydryl oxidase ALR (Homo sapiens, UniProt P55789); test: inhibitors of human ALR sulfhydryl oxidase, dose response, biochemical, H2O2 detection, luminescence, cherry-pick (AID 493248)
# [2] = molecular target: Large T antigen (Simian virus 40, UniProt P03070); assay type: functional, Betapolyomavirus macacae;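 also: Confirmatory-stage PubChem screen for compounds that inhibit SV40 T antigen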
# [3] = cytotoxicity in KRAS-transformed pancreatic duct cells, primary screen, cell-based, fluorescence, HTS (AID 431); assay type: functional; details: Homo sapiens;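 also: cell line used: HPDE-C7K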
# [4] = cytotoxicity in HPDE-C7 cells, cell-based, fluorescence, HTS (AID 430); assay type: functional; details: Homo sapiens
# [5] = A Cell Based Secondary Assay To Explore Cytotoxicity of Compounds that Sensitize Mycobacterium Tuberculosis to Beta-Lactam Antibiotics.; assay type: functional
# [6] = molecular target: T1, fMet-Leu-Phe receptor (Homo sapiens, UniProt P21462); test: FPR ligands, dose response (AID 519); assay type: functional
# T1 sequence (P21462 whole entry): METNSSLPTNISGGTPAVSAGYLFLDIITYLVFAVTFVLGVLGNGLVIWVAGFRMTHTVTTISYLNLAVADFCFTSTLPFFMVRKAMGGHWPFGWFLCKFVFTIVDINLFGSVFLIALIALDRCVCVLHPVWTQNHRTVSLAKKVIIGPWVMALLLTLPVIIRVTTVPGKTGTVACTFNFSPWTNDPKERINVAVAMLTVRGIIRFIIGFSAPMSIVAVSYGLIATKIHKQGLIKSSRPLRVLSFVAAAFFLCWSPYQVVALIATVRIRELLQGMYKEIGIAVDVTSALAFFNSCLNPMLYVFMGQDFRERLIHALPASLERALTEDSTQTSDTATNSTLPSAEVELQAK
# [7] = molecular target: Paired box protein Pax-8 (Homo sapiens, UniProt Q06710); test: inhibitors of PAX8-driven TPO luciferase reporter, dose response, RMG-I cells, cherry-pick (AID 687027); assay type: functional, cell-based;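 also: luciferase reporter driven by Pax8 target thyroperoxidase promoter measured by SteadyGlo luminescence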
# [8] = cytotoxicity in OVCAR8 ovarian cancer cells, dose response, PAX8 project, cell-based, plate reader, dry powder samples (AID 743197); assay type: functional; details: OVCAR-8
# [9] = molecular target: Estrogen receptor beta (Homo sapiens, UniProt Q92731);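 also: recombinant ER-beta bound to coactivator SRC1 peptide in presence of estradiol agonist; inhibitors block coactivator peptide binding and lower the FRET signal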
# [10] = molecular target: T2, Rac GTPase-activating protein 1 (Homo sapiens, UniProt Q9H0H5); test: MgcRacGAP GTPase-activating activity inhibitors, confirmation, biochemical, ADP Hunter fluorescence, primary and confirmatory (AID 624330); assay type: functional
# T2 sequence (Q9H0H5 whole entry): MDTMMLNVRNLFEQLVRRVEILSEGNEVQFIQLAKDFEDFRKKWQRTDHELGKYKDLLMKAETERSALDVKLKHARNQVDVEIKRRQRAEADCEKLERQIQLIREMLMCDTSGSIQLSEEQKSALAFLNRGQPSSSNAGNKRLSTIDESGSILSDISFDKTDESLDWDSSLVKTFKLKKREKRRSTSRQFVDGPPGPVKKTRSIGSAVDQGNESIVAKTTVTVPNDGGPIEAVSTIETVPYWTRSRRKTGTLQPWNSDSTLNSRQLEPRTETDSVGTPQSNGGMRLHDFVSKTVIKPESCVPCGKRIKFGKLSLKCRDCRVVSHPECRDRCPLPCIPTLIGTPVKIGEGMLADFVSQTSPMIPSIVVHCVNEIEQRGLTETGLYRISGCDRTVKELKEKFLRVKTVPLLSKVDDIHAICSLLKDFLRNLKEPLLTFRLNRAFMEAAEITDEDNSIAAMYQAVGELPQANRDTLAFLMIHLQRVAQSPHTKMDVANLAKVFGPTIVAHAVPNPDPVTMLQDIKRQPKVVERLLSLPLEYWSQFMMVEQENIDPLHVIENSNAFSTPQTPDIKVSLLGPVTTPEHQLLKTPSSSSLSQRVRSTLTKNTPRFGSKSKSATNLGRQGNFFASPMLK
# [11] = molecular target: Cytochrome P450 2D6 (Homo sapiens, UniProt P10635);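 also: CYP2D6 member of a cytochrome P450 panel assay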
# [12] = molecular target: T3, Cytochrome P450 1A2 (Homo sapiens, UniProt P05177);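 also: PubChem cytochrome P450 panel assay, CYP1A2 panel member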
# T3 sequence (P05177 whole entry): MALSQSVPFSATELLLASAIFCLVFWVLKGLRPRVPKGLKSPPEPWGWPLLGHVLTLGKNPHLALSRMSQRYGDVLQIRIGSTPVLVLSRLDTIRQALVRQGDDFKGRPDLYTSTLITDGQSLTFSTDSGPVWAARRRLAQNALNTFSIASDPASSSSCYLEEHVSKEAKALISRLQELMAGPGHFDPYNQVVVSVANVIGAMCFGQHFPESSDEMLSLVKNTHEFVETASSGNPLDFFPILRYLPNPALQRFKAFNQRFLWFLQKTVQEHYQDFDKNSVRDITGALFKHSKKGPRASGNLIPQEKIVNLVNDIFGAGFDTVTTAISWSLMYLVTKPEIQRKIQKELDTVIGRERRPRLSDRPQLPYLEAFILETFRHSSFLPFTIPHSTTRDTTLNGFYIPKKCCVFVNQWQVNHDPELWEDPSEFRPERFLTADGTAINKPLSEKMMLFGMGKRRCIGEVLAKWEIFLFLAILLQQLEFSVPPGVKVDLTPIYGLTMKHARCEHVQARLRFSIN
# [13] = molecular target: T4, Replicative DNA helicase DnaB (Mycobacterium tuberculosis, UniProt P9WMR3); test: DnaB intein splicing inhibitors, dose response, biochemical, cell-free fluorescence (AID 449749); assay type: functional
# T4 sequence (P9WMR3 whole entry): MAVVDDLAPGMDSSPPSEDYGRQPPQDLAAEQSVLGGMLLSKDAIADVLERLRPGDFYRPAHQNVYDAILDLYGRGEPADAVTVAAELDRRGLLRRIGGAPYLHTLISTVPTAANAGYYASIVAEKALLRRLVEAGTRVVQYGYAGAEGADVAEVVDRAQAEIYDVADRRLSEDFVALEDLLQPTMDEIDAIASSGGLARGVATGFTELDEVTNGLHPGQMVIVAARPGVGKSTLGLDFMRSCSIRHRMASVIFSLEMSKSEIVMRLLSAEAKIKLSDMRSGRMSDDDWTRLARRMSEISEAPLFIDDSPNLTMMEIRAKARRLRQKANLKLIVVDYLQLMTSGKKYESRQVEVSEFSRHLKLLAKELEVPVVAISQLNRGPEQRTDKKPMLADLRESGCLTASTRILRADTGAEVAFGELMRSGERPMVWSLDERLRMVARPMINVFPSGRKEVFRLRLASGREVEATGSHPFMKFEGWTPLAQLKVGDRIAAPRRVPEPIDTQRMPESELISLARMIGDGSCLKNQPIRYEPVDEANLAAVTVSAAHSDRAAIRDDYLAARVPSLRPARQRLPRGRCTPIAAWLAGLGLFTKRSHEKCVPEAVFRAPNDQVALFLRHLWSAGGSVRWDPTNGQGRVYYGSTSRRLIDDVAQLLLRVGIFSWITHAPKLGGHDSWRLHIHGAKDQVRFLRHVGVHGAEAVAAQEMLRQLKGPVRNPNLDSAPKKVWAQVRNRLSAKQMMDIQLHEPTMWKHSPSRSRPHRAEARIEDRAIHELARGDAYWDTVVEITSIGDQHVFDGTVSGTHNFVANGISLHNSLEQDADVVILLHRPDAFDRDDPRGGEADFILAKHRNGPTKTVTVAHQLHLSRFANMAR
# [14] = molecular target: Eukaryotic translation initiation factor 4E (Mus musculus, UniProt P63073); test: eIF4E–eIF4G protein interaction inhibitors, dose response, biochemical, TR-FRET (AID 855); assay type: functional;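 also: potency for disrupting eIF4E binding to eIF4GI seen as loss of FRET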
# [15] = molecular target: T5, Protein RecA (Mycobacterium tuberculosis, UniProt P9WHJ3); test: Fluorescence Cell-Free Homogeneous Dose Retest to Identify Inhibitors of RecA-Intein Splicing Activity. [Related pubchem assays (depositor defined):AID2097, AID2223, AID489010, AID492950]; assay type: functional
# T5 sequence (P9WHJ3 whole entry): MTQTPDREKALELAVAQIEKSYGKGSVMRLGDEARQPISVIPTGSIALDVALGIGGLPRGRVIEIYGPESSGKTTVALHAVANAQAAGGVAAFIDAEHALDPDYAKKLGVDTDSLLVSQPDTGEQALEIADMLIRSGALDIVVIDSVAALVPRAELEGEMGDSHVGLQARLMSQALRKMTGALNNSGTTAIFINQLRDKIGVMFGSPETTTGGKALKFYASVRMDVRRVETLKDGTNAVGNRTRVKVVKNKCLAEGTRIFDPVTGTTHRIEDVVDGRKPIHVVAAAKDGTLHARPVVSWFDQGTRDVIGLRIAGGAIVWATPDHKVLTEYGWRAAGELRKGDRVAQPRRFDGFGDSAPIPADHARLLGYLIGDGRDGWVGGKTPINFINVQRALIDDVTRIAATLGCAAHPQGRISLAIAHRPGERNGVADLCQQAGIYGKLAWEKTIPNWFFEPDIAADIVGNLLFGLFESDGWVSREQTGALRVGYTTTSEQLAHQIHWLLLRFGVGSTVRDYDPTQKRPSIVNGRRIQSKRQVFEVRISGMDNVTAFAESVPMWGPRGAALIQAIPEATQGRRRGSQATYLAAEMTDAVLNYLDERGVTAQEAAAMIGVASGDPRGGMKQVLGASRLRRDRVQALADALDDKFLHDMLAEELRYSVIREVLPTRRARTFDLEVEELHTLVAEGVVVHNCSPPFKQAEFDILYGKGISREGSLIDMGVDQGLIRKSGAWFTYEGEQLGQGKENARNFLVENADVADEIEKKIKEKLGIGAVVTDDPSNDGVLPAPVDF
# [16] = intracellular Trypanosoma cruzi inhibitors in host cells – cell-based, plate reader, cherry-pick samples, set 3, dose response (AID 651818); assay type: functional;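 also: compounds incubated with infected cells for about four days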
# [17] = cells; assay type: functional, cell-based
# [18] = cells; assay type: functional, cell-based; remark: listed apart in the source
# Sequence of Large T antigen (P03070 whole entry): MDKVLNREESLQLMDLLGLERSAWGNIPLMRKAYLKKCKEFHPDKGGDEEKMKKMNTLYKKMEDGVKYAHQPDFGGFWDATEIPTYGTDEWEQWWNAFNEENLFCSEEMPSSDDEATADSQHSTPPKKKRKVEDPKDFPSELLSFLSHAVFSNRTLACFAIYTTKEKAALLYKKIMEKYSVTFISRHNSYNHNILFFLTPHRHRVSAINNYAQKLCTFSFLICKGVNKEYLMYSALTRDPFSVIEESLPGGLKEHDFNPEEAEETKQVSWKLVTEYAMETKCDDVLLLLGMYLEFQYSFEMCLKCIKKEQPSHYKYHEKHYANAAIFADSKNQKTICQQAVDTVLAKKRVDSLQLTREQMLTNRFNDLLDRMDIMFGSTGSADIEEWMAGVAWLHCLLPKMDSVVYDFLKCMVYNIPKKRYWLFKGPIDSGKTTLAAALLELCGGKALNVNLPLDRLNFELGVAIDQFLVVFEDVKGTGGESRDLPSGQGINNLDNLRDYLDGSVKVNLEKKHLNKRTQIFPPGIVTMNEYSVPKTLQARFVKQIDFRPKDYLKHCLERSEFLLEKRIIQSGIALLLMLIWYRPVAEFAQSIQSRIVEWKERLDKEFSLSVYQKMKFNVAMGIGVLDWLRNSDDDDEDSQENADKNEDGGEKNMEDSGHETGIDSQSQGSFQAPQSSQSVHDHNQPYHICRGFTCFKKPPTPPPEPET
# Sequence of Estrogen receptor beta (Q92731 whole entry): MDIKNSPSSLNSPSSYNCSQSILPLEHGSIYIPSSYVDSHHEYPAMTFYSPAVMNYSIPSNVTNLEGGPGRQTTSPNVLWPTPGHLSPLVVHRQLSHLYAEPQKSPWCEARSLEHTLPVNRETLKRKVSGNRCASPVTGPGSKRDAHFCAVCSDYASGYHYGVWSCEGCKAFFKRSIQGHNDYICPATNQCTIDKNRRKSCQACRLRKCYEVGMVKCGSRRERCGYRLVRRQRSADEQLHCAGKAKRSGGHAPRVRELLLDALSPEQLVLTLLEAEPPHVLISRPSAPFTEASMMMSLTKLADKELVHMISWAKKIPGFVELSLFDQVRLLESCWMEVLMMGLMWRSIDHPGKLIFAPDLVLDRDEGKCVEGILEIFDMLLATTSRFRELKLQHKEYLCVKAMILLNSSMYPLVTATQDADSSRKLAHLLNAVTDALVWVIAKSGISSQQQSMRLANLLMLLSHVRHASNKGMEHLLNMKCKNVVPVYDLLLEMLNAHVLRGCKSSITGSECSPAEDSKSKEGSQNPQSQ
# Sequence of Paired box protein Pax-8 (Q06710 whole entry): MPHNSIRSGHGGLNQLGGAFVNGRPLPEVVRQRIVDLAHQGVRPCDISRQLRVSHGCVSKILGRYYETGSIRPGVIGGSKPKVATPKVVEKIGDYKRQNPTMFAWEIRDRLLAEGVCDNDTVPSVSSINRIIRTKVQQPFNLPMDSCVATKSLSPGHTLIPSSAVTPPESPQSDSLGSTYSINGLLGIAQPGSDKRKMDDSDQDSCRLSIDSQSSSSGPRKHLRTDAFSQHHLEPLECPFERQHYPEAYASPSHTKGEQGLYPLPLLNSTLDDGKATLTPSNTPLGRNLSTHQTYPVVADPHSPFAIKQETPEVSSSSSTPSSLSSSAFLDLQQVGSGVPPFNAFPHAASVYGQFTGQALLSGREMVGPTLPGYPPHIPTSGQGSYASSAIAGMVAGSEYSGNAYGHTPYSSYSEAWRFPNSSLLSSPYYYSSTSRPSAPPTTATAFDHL
# Sequence of FAD-linked sulfhydryl oxidase ALR (P55789 whole entry): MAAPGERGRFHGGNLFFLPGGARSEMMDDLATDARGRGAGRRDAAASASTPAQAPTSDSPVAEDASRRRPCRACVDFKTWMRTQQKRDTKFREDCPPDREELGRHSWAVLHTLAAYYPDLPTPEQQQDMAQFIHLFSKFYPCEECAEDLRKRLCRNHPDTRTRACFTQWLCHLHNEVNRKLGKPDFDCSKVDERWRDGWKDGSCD
# Sequence of Cytochrome P450 2D6 (P10635 whole entry): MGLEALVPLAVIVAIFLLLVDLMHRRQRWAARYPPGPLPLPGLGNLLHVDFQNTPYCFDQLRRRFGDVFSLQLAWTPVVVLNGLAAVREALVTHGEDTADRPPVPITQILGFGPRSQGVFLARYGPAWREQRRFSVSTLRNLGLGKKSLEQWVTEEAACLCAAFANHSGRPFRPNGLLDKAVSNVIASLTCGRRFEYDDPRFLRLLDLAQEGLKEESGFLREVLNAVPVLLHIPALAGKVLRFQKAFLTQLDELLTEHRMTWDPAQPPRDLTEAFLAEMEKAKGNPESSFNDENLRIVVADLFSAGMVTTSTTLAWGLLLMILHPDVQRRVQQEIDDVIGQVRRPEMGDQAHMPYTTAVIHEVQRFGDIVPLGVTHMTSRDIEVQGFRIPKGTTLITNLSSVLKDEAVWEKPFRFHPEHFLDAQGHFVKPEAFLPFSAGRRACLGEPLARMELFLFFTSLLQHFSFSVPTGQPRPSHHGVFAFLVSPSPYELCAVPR
# Sequence of Eukaryotic translation initiation factor 4E (P63073 whole entry): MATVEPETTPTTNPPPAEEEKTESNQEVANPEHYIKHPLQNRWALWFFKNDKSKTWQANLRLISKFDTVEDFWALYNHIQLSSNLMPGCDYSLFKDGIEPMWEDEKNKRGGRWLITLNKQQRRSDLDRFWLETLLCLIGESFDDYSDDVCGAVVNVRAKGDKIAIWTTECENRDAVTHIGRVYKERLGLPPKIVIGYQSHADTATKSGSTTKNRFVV
compound,measurement,setting,value
Cc1cc(=O)oc2c(N)c(O)ccc12,AC50,[1],1.32 µM (active)
same,IC50,[2],0.77 µM (active)
COc1ccccc1NC(=O)c1cc2ccccc2o/c1=N\O,EC50,[3],> 20 µM (not active)
same,EC50,[4],> 20 µM (not active)
Cc1cccn2c(=O)c3cc(C(=O)N4CCC5(CC4)OCCO5)n(C)c3nc12,EC50,[3],8.42 µM (active)
same,EC50,[4],4.7 µM (active)
Clc1ccc(-c2csc3ncnc(N4CCc5ccccc5C4)c23)cc1,CC50,[5],> 40 µM (active)
Cc1ccc(Cn2c(C(CO)Nc3nc(-c4ccc(Cl)c([N+](=O)[O-])c4)cs3)nc3ccccc32)cc1 (stereo not drawn),CC50,[5],37.3 µM (active)
O=C(Cn1c(=O)oc2ccccc21)N1CCN(c2ccccc2)CC1,Ki,[6],> 66.7 µM (inactive)
COc1ccccc1/C=C/C(=O)NCC(=O)N/N=C/c1cc(Br)ccc1OC,CC50,[5],27.5 µM (active)
Cc1ccc(/C=N\NC(=O)COc2ccc(C)cc2[N+](=O)[O-])cc1,IC50,[2],> 100 µM (active)
O=S(=O)(c1ccccc1)N1CCCCN2[C@H](CO)[C@H](c3ccc(-c4ccccc4F)cc3)[C@H]2C1,AC50,[7],33.7 µM (active)
same,AC50,[8],> 70 µM (inactive)
CC(C)c1ccc(S(=O)(=O)N2CCN(CCC(=O)Nc3ccc(N(C)C)cc3)CC2)cc1,IC50,[2],15.1 µM (active)
O=C1CC(c2ccc(S(=O)(=O)NCCOc3ccccc3)cc2)CN1 (stereo not drawn),IC50,[9],> 50 µM (not active)
COc1cc(/C=N/NC(=S)NCCN2CCOCC2)ccc1O,IC50,[10],19.9 µM (active)
same,IC50,[2],6.95 µM (active)
CCN(CC)C1=CC(=O)OC12CCCCC2,IC50,[9],> 50 µM (not active)
O=C(Nc1ccc(CN2CCOCC2)cc1)c1ccc(-c2ccc(Br)cc2)o1,EC50,[3],9.91 µM (active)
same,EC50,[4],13.9 µM (active)
COc1ccccc1CNC(=O)c1cc2c(C)nn(Cc3ccc(F)cc3)c2s1,AC50,[11],22.4 µM (inconclusive)
same,CC50,[5],> 40 µM (active)
same,AC50,[12],31.6 µM (inconclusive)
O=C1CCCC(O)=C1C(C#Cc1ccccc1)C1=C(O)CCCC1=O,AC50,[13],6.78 µM (active)
same,IC50,[14],> 64 µM (inactive)
same,EC50,[15],> 380 µM (inconclusive)
same,Ki,[6],> 66.7 µM (inactive)
C[C@H](CO)N1C[C@H](C)[C@@H](CN(C)Cc2ccc(C(F)(F)F)cc2)Oc2ccc(NS(=O)(=O)c3ccc(F)cc3)cc2C1=O,AC50,[16],3.48 µM (active)
COc1ccc(CN(C)C[C@@H]2OCCCC[C@@H](C)Oc3ccc(NC(=O)Nc4ccc(C(F)(F)F)cc4)cc3C(=O)N([C@@H](C)CO)C[C@H]2C)cc1,AC50,[7],8.11 µM (active)
same,AC50,[8],> 70 µM (inactive)
CCOc1ccc2nc(N3CCC(C(=O)NC4CCCCC4)CC3)sc2c1,CC50,[5],> 40 µM (active)
CCOC(=O)c1sc(N(Cc2ccccc2)C(=O)COC(=O)c2ccc(O)cc2)nc1C,EC50,[17],175 µM (active)
same,EC50,[18],> 350 µM (not active)
C[C@@H]1CN([C@H](C)CO)C(=O)c2cc(NC(=O)Nc3cccc4ccccc34)ccc2O[C@@H]1CN(C)Cc1ccc(C(F)(F)F)cc1,AC50,[16],2.44 µM (active)
O=C(C1=C(O)C(=O)N(CCN2CCOCC2)C1c1ccccc1)c1cccs1 (stereo not drawn),Ki,[6],> 66.7 µM (inactive)
COc1ccc(OC)c(C(=O)c2nc3c(n2O)CCCCC3)c1,Ki,[6],49.6 µM (inactive)
O=C1C(C23CC4CC(CC(C4)C2)C3)C(=O)N(c2ccccc2)N1c1ccccc1,Ki,[6],11.5 µM (active)
C[C@@H]1CN([C@H](C)CO)C(=O)c2cccc(NC(=O)Nc3ccc(C(F)(F)F)cc3)c2O[C@@H]1CN(C)Cc1ccc(Oc2ccccc2)cc1,AC50,[16],7.23 µM (active)
